Data published in patent US20250325534A1, “MICROBIOCIDAL TETRAHYDROISOQUINOLINE DERIVATIVES” (SYNGENTA CROP PROTECTION AG, priority 2021, published 2025).

Tests used:
Type in all cases: cell-based
Monographella nivalis = Monographella nivalis (Microdochium nivale) / liquid culture (foot rot cereals); details: 96 h, photometrically 4-5 days after application, read-out: control of Monographella nivalis
Experimental: (§1) Example B10: Monographella nivalis (Microdochium nivale)/Liquid Culture (Foot Rot Cereals) Conidia of the fungus from cryogenic storage are directly mixed into a nutrient broth (potato dextrose broth). After placing a DMSO solution of test compound into a microtiter plate (96-well format), the nutrient broth containing the fungal spores is added. The test plates are incubated at 24° C. and the inhibition of growth is determined photometrically 4-5 days after application.

[1] = test system: Mycosphaerella graminicola; assay: Mycosphaerella graminicola (Septoria tritici) / liquid culture (Septoria blotch); details: Zymoseptoria tritici, 96 h, photometrically 4-5 days after application, read-out: control of Mycosphaerella graminicola
Experimental: as §1, with “B19: Mycosphaerella graminicola (Septoria tritici)/Liquid” for “B10: Monographella nivalis (Microdochium nivale)/Liquid”, “(Septoria Blotch)” for “(Foot Rot Cereals)”

Mycosphaerella arachidis = Mycosphaerella arachidis (Cercospora arachidicola) / liquid culture (early leaf spot); details: 96 h, photometrically 4-5 days after application, read-out: control of Mycosphaerella arachidis
Experimental: as §1, with “B11: Mycosphaerella arachidis (Cercospora arachidicola)/Liquid” for “B10: Monographella nivalis (Microdochium nivale)/Liquid”, “(Early Leaf Spot)” for “(Foot Rot Cereals)”

Glomerella lagenarium = Glomerella lagenarium (Colletotrichum lagenarium) / liquid culture (anthracnose); details: Colletotrichum orbiculare, 72 h, photometrically 3-4 days after application, read-out: control of Glomerella lagenarium
Experimental: as §1, with “B5: Glomerella Lagenarium (Colletotrichum Lagenarium)/Liquid” for “B10: Monographella nivalis (Microdochium nivale)/Liquid”, “(Anthracnose)” for “(Foot Rot Cereals)”, “measured” for “determined”, “3-4” for “4-5”

SMILES | inhibition of growth at 20 ppm (Monographella nivalis) [%] | inhibition of growth at 20 ppm [1] [%] | inhibition of growth at 20 ppm (Mycosphaerella arachidis) [%] | inhibition of growth at 20 ppm (Glomerella lagenarium) [%]
CC1c2ccc(OC(F)F)cc2C(C)(c2cnn(C)c2)CN1C(=O)c1cc(-c2ccc(F)cc2F)on1 (stereo not shown) [Compound P-30, [6-(difluoromethoxy)-1,4-dimethyl-4-(1-methylpyrazol-4-yl)-1,3-dihydroisoquinolin-2-yl]-[5-(2,4-difluorophenyl)isoxazol-3-yl]methanone] | ≥ 80 | ≥ 80 | ≥ 80 | –
CC1c2ccc(OCC(F)F)cc2C(C)(c2cnn(C)c2)CN1C(=O)c1cc(-c2ccc(F)cc2F)on1 (stereo not shown) [Compound P-33, [6-(2,2-difluoroethoxy)-1,4-dimethyl-4-(1-methylpyrazol-4-yl)-1,3-dihydroisoquinolin-2-yl]-[5-(2,4-difluorophenyl)isoxazol-3-yl]methanone] | ≥ 80 | ≥ 80 | ≥ 80 | –
COc1ccc2c(c1)C(C)(c1cnn(C)c1)CN(C(=O)c1cc(-c3ccccc3)on1)C2C (stereo not shown) [Compound P-39, [6-methoxy-1,4-dimethyl-4-(1-methylpyrazol-4-yl)-1,3-dihydroisoquinolin-2-yl]-(5-phenylisoxazol-3-yl)methanone] | ≥ 80 | ≥ 80 | ≥ 80 | –
Cn1cc(C2CN(C(=O)c3cc(-c4ccc(F)cc4F)on3)Cc3ccc(Cl)cc32)cn1 (stereo not shown) [Compound P-58, [6-chloro-4-(1-methylpyrazol-4-yl)-3,4-dihydro-1H-isoquinolin-2-yl]-[5-(2,4-difluorophenyl)isoxazol-3-yl]methanone] | ≥ 80 | ≥ 80 | – | ≥ 80
Cn1cc(C2CN(C(=O)c3ccc(-c4ccc(C(F)(F)F)cc4)o3)Cc3ccccc32)cn1 (stereo not shown) [Compound P-76, [4-(1-methylpyrazol-4-yl)-3,4-dihydro-1H-isoquinolin-2-yl]-[5-[4-(trifluoromethyl)phenyl]-2-furyl]methanone] | – | – | – | ≥ 80
Cn1cc(C2CN(C(=O)c3ccc(-c4ccc(F)cc4)o3)Cc3ccccc32)cn1 (stereo not shown) [Compound P-97, [5-(4-fluorophenyl)-2-furyl]-[4-(1-methylpyrazol-4-yl)-3,4-dihydro-1H-isoquinolin-2-yl]methanone] | – | – | – | ≥ 80
Cc1cccc2c1CN(C(=O)c1cc(-c3ccc(F)cc3F)on1)CC2c1c(C)nn(C)c1C (stereo not shown) [Compound P-114, [5-(2,4-difluorophenyl)isoxazol-3-yl]-[8-methyl-4-(1,3,5-trimethylpyrazol-4-yl)-3,4-dihydro-1H-isoquinolin-2-yl]methanone] | – | ≥ 80 | ≥ 80 | –
Cc1nn(C)c(C)c1C1CN(C(=O)c2cc(-c3ccc(F)cc3F)on2)Cc2cccc(F)c21 (stereo not shown) [Compound P-123, [5-(2,4-difluorophenyl)isoxazol-3-yl]-[5-fluoro-4-(1,3,5-trimethylpyrazol-4-yl)-3,4-dihydro-1H-isoquinolin-2-yl]methanone] | – | ≥ 80 | ≥ 80 | –
Cc1nn(C)c(C)c1C1CN(C(=O)c2cc(-c3ccc(Cl)cc3F)on2)Cc2ccccc21 (stereo not shown) [Compound P-125, [5-(4-chloro-2-fluoro-phenyl)isoxazol-3-yl]-[4-(1,3,5-trimethylpyrazol-4-yl)-3,4-dihydro-1H-isoquinolin-2-yl]methanone] | ≥ 80 | ≥ 80 | ≥ 80 | –
Cc1ccc2c(c1)C(c1cnn(C)c1)CN(C(=O)c1cc(-c3ccccc3)on1)C2 (stereo not shown) [Compound P-137, [6-methyl-4-(1-methylpyrazol-4-yl)-3,4-dihydro-1H-isoquinolin-2-yl]-(5-phenylisoxazol-3-yl)methanone] | – | ≥ 80 | ≥ 80 | –
Cn1cc(C2CN(C(=O)c3cc(-c4ccc(F)c(F)c4)on3)Cc3ccccc32)cn1 (stereo not shown) [Compound P-172, [5-(3,4-difluorophenyl)isoxazol-3-yl]-[4-(1-methylpyrazol-4-yl)-3,4-dihydro-1H-isoquinolin-2-yl]methanone] | – | ≥ 80 | ≥ 80 | –
Cn1cc(C2CN(C(=O)c3cc(C4CCCC4)on3)Cc3ccccc32)cn1 (stereo not shown) [Compound P-176, (5-cyclopentylisoxazol-3-yl)-[4-(1-methylpyrazol-4-yl)-3,4-dihydro-1H-isoquinolin-2-yl]methanone] | – | ≥ 80 | ≥ 80 | –
Cn1cc(C2CN(C(=O)c3cc(-c4cccn4C)on3)Cc3ccccc32)cn1 (stereo not shown) [Compound P-179, [4-(1-methylpyrazol-4-yl)-3,4-dihydro-1H-isoquinolin-2-yl]-[5-(1-methylpyrrol-2-yl)isoxazol-3-yl]methanone] | ≥ 80 | ≥ 80 | ≥ 80 | –
Cc1cccc(-c2cc(C(=O)N3Cc4ccccc4C(c4cnn(C)c4)C3)no2)c1 (stereo not shown) [Compound P-187, [4-(1-methylpyrazol-4-yl)-3,4-dihydro-1H-isoquinolin-2-yl]-[5-(m-tolyl)isoxazol-3-yl]methanone] | – | ≥ 80 | – | ≥ 80
CC1c2ccccc2C(c2cnn(C)c2)(C(C)C)CN1C(=O)c1cc(-c2ccc(F)cc2F)on1 (stereo not shown) [Compound P-220, [5-(2,4-difluorophenyl)isoxazol-3-yl]-[4-isopropyl-1-methyl-4-(1-methylpyrazol-4-yl)-1,3-dihydroisoquinolin-2-yl]methanone] | – | ≥ 80 | ≥ 80 | –
CCC1(c2cnn(C)c2)CN(C(=O)c2cc(-c3ccc(F)cc3F)on2)C(C)c2ccccc21 (stereo not shown) [Compound P-222, [5-(2,4-difluorophenyl)isoxazol-3-yl]-[4-ethyl-1-methyl-4-(1-methylpyrazol-4-yl)-1,3-dihydroisoquinolin-2-yl]methanone] | ≥ 80 | ≥ 80 | ≥ 80 | –
Cc1cc(-c2cc(C(=O)N3Cc4ccccc4C(c4cnn(C)c4C)C3)no2)n(C)n1 (stereo not shown) [Compound P-226] | – | ≥ 80 | – | ≥ 80
Cc1c(C2CN(C(=O)c3cc(C4CCCCC4)on3)Cc3ccccc32)cnn1C (stereo not shown) [Compound P-236, (5-cyclohexylisoxazol-3-yl)-[4-(1,5-dimethylpyrazol-4-yl)-3,4-dihydro-1H-isoquinolin-2-yl]methanone] | ≥ 80 | ≥ 80 | ≥ 80 | –
CC(C)[C@@]1(c2cnn(C)c2)CN(C(=O)c2cc(-c3ccc(F)cc3F)on2)[C@@H](C)c2ccccc21 [Compound P-239, [5-(2,4-difluorophenyl)isoxazol-3-yl]-[(1S,4R)-4-isopropyl-1-methyl-4-(1-methylpyrazol-4-yl)-1,3-dihydroisoquinolin-2-yl]methanone] | – | ≥ 80 | ≥ 80 | –
CC(C)[C@]1(c2cnn(C)c2)CN(C(=O)c2cc(-c3ccc(F)cc3F)on2)[C@@H](C)c2ccccc21 [Compound P-241, [5-(2,4-difluorophenyl)isoxazol-3-yl]-[(1S,4S)-4-isopropyl-1-methyl-4-(1-methylpyrazol-4-yl)-1,3-dihydroisoquinolin-2-yl]methanone] | – | ≥ 80 | ≥ 80 | –
